# Patent US8822532B2, “Bis[thiohydrazide amide] compounds for treating leukemia” (Synta Pharmaceuticals Corp., priority 2009, dated 2014)
# Columns and labels:
# AML patient blast cells = test: Flow cytometry (MMP, ROS, GSH, membrane integrity) of primary AML patient blasts treated ex vivo; assay type: cell-based, human
# Description: • Cell lines: OCI-AML2, OCI-AML5, OCI-M2 (p53 mutant M6), MV4-11 (FLT3-ITD) • Patients were treated by the Princess Margaret Hospital Leukemia Program. • Primary blasts from 10 AML patients isolated by density gradient or RBC lysis, maintained in a-MEM+10% FBS±10% 5637-conditioned medium. Flow Cytometry Protocol: • Combined staining at 37° for: • MMP—DiIC1(5) 40 nM 30′ • ROS—carboxy-dichlorofluorescin […] or dihydrorhodamine 123 […] for 30′ • GSH—monobromobimane […] for 5′ • Surface membrane integrity—propidium iodide […] for 5′ • Samples run on 3 laser flow cytometer (Gallios, Beckman-Coulter)
# metastatic melanoma = conditions: cited from earlier work
SMILES,mitochondrial dysfunction and cell death (AML patient blast cells; ex vivo treatment of primary blast cells from patients with AML),"primary endpoint, difference between the two arms (metastatic melanoma; elevated LDH population)",survival endpoint (metastatic melanoma; elevated LDH population),progression-free survival improvement (primary endpoint) (metastatic melanoma; normal LDH population),safety profile (metastatic melanoma; normal LDH population),"ROS (AML patient blast cells; Patient #123 blasts, 100nM, 6 hr, FIG. 3a)","loss of mitochondrial membrane potential versus outer membrane integrity (dual MMP/PI plots) (AML patient blast cells; Patient #123 blasts, FIG. 3a)","reduced GSH (AML patient blast cells; Patient #123 blasts, FIG. 3a)","sensitivity of primary patient blasts compared with AML cell lines (AML patient blast cells; Patient #123 blasts, FIG. 3a)","sensitivity of blasts (AML patient blast cells; Patient #126 blasts, FIG. 3d)","GSH (AML patient blast cells; Patient #127 blasts, 30 nM, already evident at 6 hr, FIG. 3b)","sensitivity of blasts (AML patient blast cells; Patient #131 blasts (higher baseline GSH), FIG. 3c)","GSH and MMP (AML patient blast cells; Patient #131 blasts, FIG. 3c)","ROS (AML patient blast cells; Patient #131 blasts, most evident at 30 nM 24 hr, FIG. 3c)",depletion of GSH and dissipation of mitochondrial membrane potential (AML patient blast cells; all cases),"impairment of primary blasts (AML patient blast cells; all samples, 30 nM)"
"CN(NC(=O)CC(=O)NN(C)C(=S)c1ccccc1)C(=S)c1ccccc1 [elesclomol, N-malonyl-bis(N′-methyl-N′-thiobenzoylhydrazide)]",rapidly induced mitochondrial dysfunction and cell death,no difference was observed,negative impact,achieved,acceptable safety profile,,,,,,,,,,,
CN1C(c2ccccc2)=[SH][Cu]23[SH]=C(c4ccccc4)N(C)[N]2C(=O)CC(=O)[N]13 [elesclomol-Cu(II)],,,,,,slight increase in ROS,loss of mitochondrial membrane potential precedes the loss of outer membrane integrity,lost co-incident with the loss of MMP,more drug-sensitive,highly sensitive,loss of GSH,less sensitive,loss of GSH co-incident with loss of MMP,increased ROS,occurred in all cases,significant impairment
